ChEMBL document CHEMBL1133815, “Anti-Trypanosoma activity of some natural stilbenoids and synthetic related heterocyclic compounds” (Bioorg Med Chem Lett, 2001)
In brackets after ≈: the same amount, converted by molar mass. Several values for one entry are separate records, joined by “and”; a condition that tells them apart may be missing. Identical values can stand only once.

How the values were obtained:
[1] = test system: Trypanosoma cruzi; assay: Inhibitory concentration against epimastigotes (Tulahuen strain) of Trypanosoma cruzi; Inactive; format: functional, organism-based
[2] = test system: Trypanosoma cruzi; assay: Inhibitory concentration against trypomastigotes (Y strain) of Trypanosoma cruzi; Inactive; format: functional, organism-based
[3] = test system: Trypanosoma cruzi; assay: Inhibitory concentration against Trypomastigotes (Y strain) of Trypanosoma cruzi; format: functional, organism-based
[4] = test system: Trypanosoma cruzi; assay: Inhibitory concentration against Epimastigotes (Tulahuen strain) of Trypanosoma cruzi; format: functional, organism-based
[5] = Ratio of inhibitory concentration to that of reference drug was determined; format: functional
[6] = Trypanosoma cruzi, read-out: IC50

Compound | IC50 [1] | IC50 [2] | also measured
OC1(Cc2ccc3c(c2)OCO3)c2ccccc2C2=NCCN21 (stereo unspecified) | > 100 µg/mL | > 100 µg/mL | 
CN(C)c1ccc(C(=C2C=CC(=[N+](C)C)C=C2)c2ccc(N(C)C)cc2)cc1.[Cl-] [GENTIAN VIOLET] |  |  | IC50 [3, 6]: 100 µg/mL and 245 µM
COc1cc(Cc2nn(C)c(=O)c3ccccc23)cc(OC)c1OC | > 100 µg/mL | > 100 µg/mL | 
COc1cc(CC2(O)c3ccccc3C3=NCCCN32)cc(OC)c1OC (stereo unspecified) | > 100 µg/mL | > 100 µg/mL | 
OC1(Cc2ccccc2)c2ccccc2C2=NCCCN21 (stereo unspecified) |  | > 100 µg/mL | 
COc1ccc(Cc2nnc(O)c3ccccc23)cc1 | > 100 µg/mL | > 100 µg/mL | 
OC1(Cc2ccc3c(c2)OCO3)c2ccccc2C2=NCCCN21 (stereo unspecified) | > 100 µg/mL | > 100 µg/mL | 
Cn1nc(Cc2ccccc2)c2ccccc2c1=O | > 100 µg/mL | > 100 µg/mL | 
O=C1O/C(=C\c2ccc(Cl)cc2)c2ccccc21 | > 100 µg/mL | > 100 µg/mL | 
Cn1nc(Cc2ccc(Cl)cc2)c2ccccc2c1=O | > 100 µg/mL | > 100 µg/mL | 
COc1ccc(CCc2cc(OC(C)=O)cc(OC)c2C(=O)O)cc1 | > 100 µg/mL | > 100 µg/mL | 
OC1(Cc2ccc(Cl)cc2)c2ccccc2C2=NCCN21 (stereo unspecified) | 10 µg/mL (≈ 33.5 µM) | 2.3 µg/mL (≈ 7.7 µM) | IC50 [4]: 33.6 µM; IC50 [3, 6]: 7.9 µM
Cn1nc(Cc2ccc3c(c2)OCO3)c2ccccc2c1=O | > 100 µg/mL | > 100 µg/mL | 
OC1(Cc2ccc(Cl)cc2)c2ccccc2C2=NCCCN21 (stereo unspecified) |  | > 100 µg/mL | 
Oc1nnc(Cc2ccc(Cl)cc2)c2ccccc12 | > 100 µg/mL | > 100 µg/mL | 
Oc1nnc(Cc2ccc3c(c2)OCO3)c2ccccc12 | > 100 µg/mL | > 100 µg/mL | 
COc1cc(CC2(O)c3ccccc3C3=NCCN32)cc(OC)c1OC (stereo unspecified) | > 100 µg/mL | > 100 µg/mL | 

Compound | IC50 [1] | IC50 [2] | also measured
COc1ccc(CCc2cc(O)cc(OC)c2)cc1 | > 100 µg/mL | > 100 µg/mL | 
COC(=O)c1c(CCc2ccc(OC)cc2)cc(O)cc1OC | > 100 µg/mL | > 100 µg/mL | 
O=C(Cn1ccnc1[N+](=O)[O-])NCc1ccccc1 [BENZNIDAZOLE] |  |  | IC50 [4]: 7.4 µg/mL and 30 µM; Ratio [5]: 1
COc1ccc(CC2(O)c3ccccc3C3=NCCN32)cc1OC (stereo unspecified) | > 100 µg/mL | > 100 µg/mL | 
COc1ccc(Cc2nn(C)c(=O)c3ccccc23)cc1OC | > 100 µg/mL | > 100 µg/mL | 
COc1cc(/C=C2\OC(=O)c3ccccc32)cc(OC)c1OC | > 100 µg/mL | > 100 µg/mL | 
O=C1O/C(=C\c2ccccc2)c2ccccc21 | 45 µg/mL (≈ 202 µM) | > 100 µg/mL | 
COc1ccc(CCc2cc(O)cc(OC)c2C(=O)N2CCCCC2)cc1 |  |  | IC50 [4]: 30 µg/mL and 81.3 µM; IC50 [3]: 12 µg/mL and 33 µg/mL
OC1(Cc2ccccc2)c2ccccc2C2=NCCN21 (stereo unspecified) |  | > 100 µg/mL | 
COc1ccc(Cc2nnc(O)c3ccccc23)cc1OC | > 100 µg/mL | > 100 µg/mL | 
O=C1O/C(=C\c2ccc3c(c2)OCO3)c2ccccc21 | > 100 µg/mL | > 100 µg/mL | 
COc1ccc(CC2(O)c3ccccc3C3=NCCCN32)cc1OC (stereo unspecified) | > 100 µg/mL | > 100 µg/mL | 
COc1ccc(CCc2cc(O)cc(OC)c2C(=O)O)cc1 [ISONOTHOLAENIC ACID] |  | > 100 µg/mL | 
O=c1[nH]nc(Cc2ccccc2)c2ccccc12 | > 100 µg/mL | > 100 µg/mL | 
COc1cc(Cc2nnc(O)c3ccccc23)cc(OC)c1OC | > 100 µg/mL | > 100 µg/mL | 
COc1ccc(/C=C2\OC(=O)c3ccccc32)cc1OC | > 100 µg/mL | > 100 µg/mL | 

Continued, in another order:

IC50 [1] | IC50 [2] | Compound | also measured
> 100 µg/mL | > 100 µg/mL | COc1ccc(/C=C2\OC(=O)c3ccccc32)cc1 | 
> 100 µg/mL | > 100 µg/mL | COc1ccc(C(=O)C(=O)c2ccccc2C(=O)N2CCCCC2)cc1 | 
> 100 µg/mL | > 100 µg/mL | COc1ccc(CC(=O)c2ccccc2C(=O)N2CCCCC2)cc1 | 
> 100 µg/mL | > 100 µg/mL | O=C(C(=O)c1ccccc1C(=O)N1CCCCC1)c1ccc2c(c1)OCO2 | 
> 100 µg/mL | > 100 µg/mL | O=C(C(=O)c1ccccc1C(=O)N1CCCCC1)c1ccccc1 | 
> 100 µg/mL | > 100 µg/mL | COc1ccc(CC(=O)c2ccccc2C(=O)N2CCCCC2)cc1OC | 
> 100 µg/mL | > 100 µg/mL | O=C(Cc1ccc2c(c1)OCO2)c1ccccc1C(=O)N1CCCCC1 | 
> 100 µg/mL | > 100 µg/mL | COc1ccc(Cc2nn(C)c(=O)c3ccccc23)cc1 | 
 | > 100 µg/mL | COc1cc(CC(=O)c2ccccc2C(=O)N2CCCCC2)cc(OC)c1OC | 
> 100 µg/mL | > 100 µg/mL | O=C(Cc1ccc(Cl)cc1)c1ccccc1C(=O)N1CCCCC1 | 
 | > 100 µg/mL | COc1cc(C(=O)C(=O)c2ccccc2C(=O)N2CCCCC2)cc(OC)c1OC | 
> 100 µg/mL | > 100 µg/mL | O=C(C(=O)c1ccccc1C(=O)N1CCCCC1)c1ccc(Cl)cc1 | 
 | > 100 µg/mL | COc1ccc(CC2(O)c3ccccc3C3=NCCN32)cc1 (stereo unspecified) | 
> 100 µg/mL | > 100 µg/mL | CCNC(=O)c1ccccc1C(=O)C(=O)c1ccc(OC)cc1 | 
> 100 µg/mL | > 100 µg/mL | COc1ccc(C(=O)C(=O)c2ccccc2C(=O)N2CCCC2)cc1 | 
> 100 µg/mL | > 100 µg/mL | COc1ccc(C(=O)C(=O)c2ccccc2C(=O)N2CCCCC2)cc1OC | 
> 100 µg/mL | > 100 µg/mL | O=C(Cc1ccccc1)c1ccccc1C(=O)N1CCCCC1 | 
> 100 µg/mL | > 100 µg/mL | COc1ccc(CC2(O)c3ccccc3C3=NCCCN32)cc1 (stereo unspecified) | 
